# Paper PMC4077772, “Evolutionary Origin of GnIH and NPFF in Chordates: Insights from Novel Amphioxus RFamide Peptides” (PLoS ONE, 2014)
# Where no end group is shown, it is not given here.
# Tests used:
# [1] = tested on: cAMP levels; details: ref [42]; cited from earlier work
# Text: (§1) We conducted in vitro assays to analyze whether the amphioxus PQRFa peptides have a biological activity.
# [2] = tested on: CRE-luciferase activity; details: ref [41]; cited from earlier work
# Text: as §1
# [3] = tested on: amphioxus PQRFa-R1; assay: FSK-induced CRE-luciferase reporter assay, COS-7 cells transfected with amphioxus PQRFa-R1; assay type: cell-based, Branchiostoma japonicum; details: 6 h, COS-7 cells with PQRFa-R1, tested 10^−10−10^−6 M, dual-luciferase, fold activation over basal, mean ± SEM (n=4−6), Figure 6
# Method: COS-7 cells were maintained in Dulbecco's modified Eagle's medium (DMEM; GIBCO/Invitrogen, Carlsbad, CA) supplemented with high glucose (4.5 g/L) containing 10% fetal bovine serum (GIBCO/Invitrogen) and 1% penicillin/streptomycin antibiotics (GIBCO/Invitrogen) in a humidified 5% CO2 atmosphere at 37°C. For luciferase assay, COS-7 cells were plated in 24-well plates and grown to 70–80% confluence for 24 h before transfection. Cells were then co-transfected with 200 ng of p3XFLAG-CMV-14 expression vector (Sigma-Aldrich Co., St Louis, MO) containing the amphioxus PQRFa-R1, PQRFa-R2, or empty vector, 200 ng of the pGL4.29[luc2P/CRE/Hygro] […] Cell extracts were prepared, and luciferase activity was measured using the dual-luciferase reporter assay system (Promega). […] Statistical significance was assessed by Prism statistical software (GraphPad Software Inc., La Jolla, CA). […]
# Figure 5 Effect of amphioxus PQRFa peptides on forskolin (FSK)-induced or basal CRE-luciferase activity. […] The effect of amphioxus PQRFa peptides on basal CRE-luciferase activity was also tested in COS-7 cells transfected with amphioxus PQRFa-R1 or R2.The relative luciferase activity was measured from cell lysates and expressed as fold activation over the respective basal levels. […]
# [4] = tested on: pituitary; details: lamprey GnIH; ref [24]; cited from earlier work
# Text: as §1
substance,measurement,setting,value
"FLFQPQRFamide [NPFF, pain modulatory neuropeptide with a C-terminal Pro-Gln-Arg-Phe-NH2 motif]",effect on cAMP levels,[1],inhibited cAMP levels
same,effect on FSK-stimulated CRE-luciferase activity,[2],inhibited FSK-stimulated CRE-luciferase activity
GRDQGWRPQRF-NH2 [PQRFa-3],inhibition of FSK-induced CRE-luciferase activity (dose-dependent study),[3]; 10^−6 M peptide,inhibited FSK-induced CRE-luciferase activity
same,inhibition of FSK-induced CRE-luciferase activity (dose-dependent study),[3]; 10^−7 M peptide,inhibited FSK-induced CRE-luciferase activity
"SEPFWHRTRPQRF-NH2 [Lamprey GnIH (LPXRFa peptide-2), lamprey GnIH ortholog]",effect on expression of GTHβ mRNA in the pituitary,[4],increased the expression of GTHβ mRNA
